According to patent US4550166A, “(Pyridinyl)-1,2,4-triazolo[4,3-a]pyridines” (American Cyanamid Company, priority 1984, dated 1985):

Tests used:
[1] = system: clonic seizures caused by pentylenetetrazole in rats; assay: Protection Against Clonic Siezures Caused by Pentylenetetrazole in Rats; type: in vivo; details: Dose 25 mg/kg, orally or intraperitoneally, pentylenetetrazole 23 mg/kg i.v. at 30 or 60 minutes
Protocol: The antianxiety properties of the novel compounds of the present invention have been established in a test which indicates anxiolytic activity by the measure of protection from convulsions resulting from the administration of pentylenetetrazole. Single or graded dose levels of the test compounds were administered orally or intraperitoneally in a 2% starch vehicle, containing 0.5% v/v polyethylene glycol and one drop of Polysorbate 80 to groups of at least four rats. At 30 or 60 minutes, the rats were treated intravenously with pentylenetetrazole at a dose of 23 mg/kg of body weight. This dose is estimated to cause clonic seizures in 99% of unprotected rats.
It has been reported [R. T. Hill and D. H. Tedeschi, "Animal Testing and Screening Procedures in Evaluating Psychotropic Drugs" in An Introduction to Psychopharmacology, Eds. R. R. Rech and K. E. Moore, Raven Press, New York, pp 237-288 (1971)] that there is a high degree of correlation between antagonism of pentylenetetrazole seizures in rats and antianxiety effects in higher warm-blooded animals.

[2] = system: Brain-specific Receptors of Rats (^3 H-benzodiazepine binding); assay: Inhibition of the Binding of ^3 H--Benzodiazepine to Brain-specific Receptors of Rats; design: species or system rats (male albino, Wistar strain); details: 1 μM; whole cortex of rats, P2 fraction; ^3 H-diazepam (1.5 nM) or ^3 H-flunitrazepam (1.0 nM)
[3] = system: conflict situation in rats; assay: Non-Conditioned Passive Avoidance Test in Rats; type: in vivo, Wistar strain rats; design: key: Active: considered active if the number of shocks received by the test group is significantly higher than the control group by the Mann-Witney U test; details: Dose 25 mg/kg, oral or intraperitoneal, 30 or 60 minutes
Protocol: Another test which has been used to assess anti-anxiety effects is a non-conditioned passive avoidance procedure described by J. R. Vogel, B. Beer and D. E. Clody, "A Simple and Reliable Conflict Procedure for Testing Antianxiety Agents", Psychopharmacologia, 21, 1-7 (1971). A conflict situation was induced in rats by a modification of this method.
Groups of 6 naive, Wistar strain rats, weighing 200-240 g each, were deprived of water for 48 hours and food for 24 hours. The test compounds were administered in single or graded, oral or intraperitoneal doses, suspended in a 2% starch vehicle containing 0.5% v/v polyethylene glycol and one drop of Polysorbate 80. Control animals received the vehicle alone. At 30 or 60 minutes each rat was placed in an individual plexiglass chamber. Water was available ad libitum from a tap located in the rear of the chamber. A 0.7 milliampere DC shocking current was established between the stainless steel grid floor and the tap. After 20 licks of non-shocked drinking, a shock was delivered for 2 seconds and then further shocks were delivered on a ratio of one shock for 2 seconds for every 20 licks. This was continued for a total of 3 minutes. The number of shocks taken by each rat during the 3 minute interval was recorded and compared to a control group.

Cc1nnc2ccc(-c3cccnc3)cn12 [3-Methyl-6-(3-pyridinyl)-1,2,4-triazolo[4,3-a]pyridine] was tested, and the “% of Rats Protected” value [1] was 75% and the “% Inhibition” value [2] was 20%.
For Cc1nnc2cc(-c3ccccn3)ccn12 [3-Methyl-7-(2-pyridinyl)-1,2,4-triazolo[4,3-a]pyridine], the “% Inhibition” value [2] was 27%.
In the case of Cc1nnc2cc(-c3ccncc3)ccn12 [3-Methyl-7-(4-pyridinyl)-1,2,4-triazolo[4,3-a]pyridine], the “% Inhibition” value [2] is reported as 24%.
Cc1nnc2c(-c3ccccn3)cccn12 [3-Methyl-8-(2-pyridinyl)-1,2,4-triazolo[4,3-a]pyridine] was tested, and the Result [3] was “Active” and the “% Inhibition” value [2] was 22%.
For Cc1nnc2c(-c3cccnc3)cccn12 [3-Methyl-8-(3-pyridinyl)-1,2,4-triazolo[4,3-a]pyridine], the Result [3] was “Active” and the “% Inhibition” value [2] was 24%.
For c1ccc(-c2cccc3nncn23)nc1 [5-(2-Pyridinyl)-1,2,4-triazolo[4,3-a]pyridine], the “% Inhibition” value [2] was 26%.
c1cncc(-c2ccc3nncn3c2)c1 [6-(3-Pyridinyl)-1,2,4-triazolo[4,3-a]pyridine] was tested, and the “% of Rats Protected” value [1] was 33% and the “% Inhibition” value [2] was 13%.
In the case of c1ccc(-c2ccn3cnnc3c2)nc1 [7-(2-Pyridinyl)-1,2,4-triazolo[4,3-a]pyridine], the “% of Rats Protected” value [1] is reported as 25% and the “% Inhibition” value [2] is reported as 15%.
c1ccc(-c2cccn3cnnc23)nc1 [8-(2-Pyridinyl)-1,2,4-triazolo[4,3-a]pyridine] was tested, and the “% Inhibition” value [2] was 26%.
With c1cncc(-c2cccn3cnnc23)c1 [8-(3-Pyridinyl)-1,2,4-triazolo[4,3-a]pyridine] the “% Inhibition” value [2] was 18%.
